Key:
[1] = biological target: T1, GRP-78 (Homo sapiens, UniProt P11021); test: ELISA analysis of phage affinity to GRP-78; format: binding; settings: Maxisorb 96-well plate coated with GRP-78; CPS minus background without GRP-78; serially diluted phages
Experimental: (g) In the end, enzyme-linked immunosorbent assay (ELISA) analysis is processed with the phages 11 to obtain high-affinity amino acid sequences of peptides.
In FIG. 2, after three times of the panning process, luminescent antibodies 12 (HRP-conjugated M13-phage g8p monoclone antibody) against the phages 11 are added to be washed with the TBST buffer having 0.5% Tween-20. At last, an enhanced chemiluminescence (ECL) substrate is added for developing.
Please further refer to FIG. 4 and FIG. 5, which are a view showing a calculating process and a result of an ELISA analysis. As shown in the figures, the four sequences selected from the five sequences are numbered as phage#01, phage#03, phage#13 and phage#15 for comparing their affinities to GRP-78. An ELISA analysis is processed after values of densities of the phages are deducted by background values at the same densities. In FIG. 3, Maxisorb 96-well plate is used. Row 11 and row 12 are not used. A1˜A10, C1˜C10, E1˜E10 and G1˜G10 are coated with GRP-78. 80 wells of A1˜A10, B1˜B10, C1˜C10, D1˜D10, E1˜E10, F1˜F10, G1˜G10, H1˜H10 and […] along with 40 clean wells are all blocked. On diluting the phages, the plate containing the 80 blocked wells along with the 40 blocked clean wells is used. The first to the tenth wells in each row contain phages sequentially diluted. […] A number of counts per second (CPS) is obtained by using an ELISA reader. […]

[2] = biological target: T1, GRP-78; test: Phage display panning against GRP-78 with DNA sequencing of picked phages; format: binding; settings: 24 independent phages picked after panning
Description: (a) A desired target protein 10 is fixed at bottom of a container added with selected phages 11 from phage display library.
(b) Each phage 11 is bound to the target protein 10 by using amino acid sequences contained in the phage 11.
(c) A TBST buffer having 0.1% Tween-20 is obtained for processing washing. By using Tween-20 as a surfactant, unspecific bindings are destroyed.
(d) The phages 11 which are bound to the target protein 10 are eluted under a weak acid status to be collected.
(e) after amplifying the collected phages 11 bound to the target protein 10, a panning process of binding, washing and eluting as in step (b) to step (d) is run for two times. For better screening efficiency, a density of Tween-20 is increased after each time of the panning process. It is because that the unspecific bindings are not destroyed with a too low density of Tween-20; yet a too high density of Tween-20 not only destroys the specific bindings between the phages 11 and the target protein 10 but also destroys integrities of proteins in the phages 11.
(f) Then, a quantification process is run with the screened phages 11 for estimating screening efficiency. DNA sequencing is then processed with the phages 11 to obtain actual sequences of 7 amino acids deposed on g3 protein (g3p). […]

T1 sequence (P11021 19-654, species assumed): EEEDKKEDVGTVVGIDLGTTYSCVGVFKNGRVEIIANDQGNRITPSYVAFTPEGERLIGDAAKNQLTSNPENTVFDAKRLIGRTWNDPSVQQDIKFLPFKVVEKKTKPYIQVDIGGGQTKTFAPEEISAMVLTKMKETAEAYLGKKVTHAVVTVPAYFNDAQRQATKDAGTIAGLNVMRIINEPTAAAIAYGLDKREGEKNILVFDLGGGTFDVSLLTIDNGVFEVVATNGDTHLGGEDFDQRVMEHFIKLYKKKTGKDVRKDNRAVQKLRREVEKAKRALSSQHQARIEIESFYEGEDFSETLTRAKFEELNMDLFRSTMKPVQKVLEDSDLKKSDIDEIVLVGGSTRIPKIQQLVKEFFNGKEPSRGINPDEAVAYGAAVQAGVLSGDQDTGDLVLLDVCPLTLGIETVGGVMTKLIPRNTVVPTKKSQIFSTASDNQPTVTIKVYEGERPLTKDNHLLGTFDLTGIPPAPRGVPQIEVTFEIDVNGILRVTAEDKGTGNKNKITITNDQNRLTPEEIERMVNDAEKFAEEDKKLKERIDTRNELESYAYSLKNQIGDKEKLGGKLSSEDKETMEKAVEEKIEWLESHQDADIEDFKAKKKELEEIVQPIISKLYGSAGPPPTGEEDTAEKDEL

Row | affinity / binding force to GRP-78 (ELISA curve, pure CPS vs phage density) [1] | occurrence of the sequence among picked phages [2] | Substance
1 | strong binding forces |  | KVW
2 |  | very few occurrences | YSLRMDF
3 | strong binding forces |  | KCCY
4 |  | very few occurrences | KLWVIPQ [ruled out for later analysis]

Reference: patent US20130109580A1, “High-Affinity Peptide Probes for Tumor Biomarker, GRP-78, and Screening Method Thereof” (ATOMIC ENERGY CONCIL-INSTITUTE OF NUCLEAR ENERGY RESEARCH, priority 2011, published 2013)
